For 8 compounds, TGI results are on record in PubChem BioAssay (NCI).

Among the test systems are UACC-257 melanoma; SK-MEL-28 melanoma; COLO 205 colon; A498 renal; KM12 colon; SN12C renal; OVCAR-8 ovarian; MOLT-4 leukemia; HL-60(TB) leukemia; PC-3 prostate; K-562 leukemia; U251 CNS; UACC-62 melanoma; SF-295 CNS; M14 melanoma; LOX IMVI melanoma; NCI/ADR-RES ovarian; MALME-3M melanoma; NCI-H226 lung.
Assay in all cases: inhibition of tumour cell growth, NCI panel, 48 h

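Results reflect a 48-hour exposure of cells in 96-well plates to compound at five concentrations. The concentration for full growth arrest is given as TGI.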

In the case of `O=C(c1ccccc1)c1ccc(N2C(=O)/C(=C/Cc3ccco3)N=C2c2ccccc2)c(N2C(=O)/C(=C/Cc3ccco3)N=C2c2ccccc2)c1`, the TGI in the test with UACC-257 melanoma, in the test on SK-MEL-28 melanoma, in the test on COLO 205 colon, in the test on A498 renal, in the test with KM12 colon and in the test with SN12C renal was > 100 µM in each case. The TGI with OVCAR-8 ovarian is > 100 µM; in the test on MOLT-4 leukemia, 56.6 µM; in the test on HL-60(TB) leukemia it was 45.7 µM; with PC-3 prostate, > 100 µM; with K-562 leukemia, > 100 µM; in the test with U251 CNS it was 43.8 µM. The TGI in the test with UACC-62 melanoma was > 100 µM; in the test on SF-295 CNS it was > 100 µM; with M14 melanoma it was > 100 µM; in the test on LOX IMVI melanoma it was 58.3 µM; with NCI/ADR-RES ovarian it was > 100 µM.

In the case of `CCCCCC1CC=CC(=O)O1` (centres undefined), the TGI was 32.9 µM with UACC-257 melanoma; 18.5 µM in the test with SK-MEL-28 melanoma; 16.7 µM in the test on COLO 205 colon; > 100 µM with A498 renal; 20.5 µM in the test with KM12 colon; 21.2 µM in the test on SN12C renal. Also, the TGI with OVCAR-8 ovarian is 22.2 µM; in the test on MOLT-4 leukemia, > 100 µM; with HL-60(TB) leukemia, > 100 µM; with PC-3 prostate it was 26.3 µM; with K-562 leukemia, 42.7 µM; with U251 CNS, 17.2 µM. Also, the TGI was 25.3 µM in the test with UACC-62 melanoma; 35.6 µM with SF-295 CNS; 26.6 µM in the test with M14 melanoma; 25.1 µM in the test on LOX IMVI melanoma; 20.2 µM in the test on MALME-3M melanoma; 25.6 µM in the test with NCI/ADR-RES ovarian.

In the case of `O=C(O)CSCc1cc2c(O)c(c1)Cc1cc(CSCC(=O)O)cc(c1O)Cc1cc(CSCC(=O)O)cc(c1O)Cc1cc(CSCC(=O)O)cc(c1O)C2`, the TGI in the test with UACC-257 melanoma, in the test with SK-MEL-28 melanoma, with COLO 205 colon, in the test with A498 renal, in the test with KM12 colon and in the test with SN12C renal was > 100 µM each time. The TGI with OVCAR-8 ovarian, in the test with MOLT-4 leukemia, in the test with HL-60(TB) leukemia, in the test on PC-3 prostate, with K-562 leukemia and with U251 CNS was > 100 µM throughout. In addition, the TGI with NCI-H226 lung, in the test with SF-295 CNS, in the test with M14 melanoma, in the test on LOX IMVI melanoma, with MALME-3M melanoma and with NCI/ADR-RES ovarian was > 100 µM throughout.

In the case of `OCc1cc2c(ccc3sc4ccc5sc6ccc7ncccc7c6c5c4c32)s1`, the TGI in the test with UACC-257 melanoma was 37.2 µM; with SK-MEL-28 melanoma, > 100 µM; with COLO 205 colon, 21.3 µM; with A498 renal, > 100 µM; in the test on KM12 colon, 20.4 µM; in the test with SN12C renal, 26.8 µM. Besides, the TGI with OVCAR-8 ovarian is 62.1 µM; in the test with MOLT-4 leukemia, 48.4 µM; in the test on HL-60(TB) leukemia, 67.1 µM; in the test with PC-3 prostate it was 43.9 µM; in the test with K-562 leukemia, > 100 µM; with U251 CNS, > 100 µM. Further, the TGI in the test on UACC-62 melanoma is 38.6 µM; with NCI-H226 lung it was > 100 µM; in the test with SF-295 CNS, 27.7 µM; in the test on LOX IMVI melanoma, 26.6 µM; in the test with NCI/ADR-RES ovarian it was 82.5 µM.

Regarding `Cc1ccc(/C=N/n2c(Cc3ccccc3)n[nH]c2=O)cc1`, the TGI in the test on UACC-257 melanoma, with SK-MEL-28 melanoma, in the test on COLO 205 colon, with A498 renal, in the test on KM12 colon and in the test with SN12C renal was > 100 µM each time. Further, the TGI in the test with OVCAR-8 ovarian, with MOLT-4 leukemia, in the test with HL-60(TB) leukemia, in the test with PC-3 prostate, in the test with K-562 leukemia and with NCI-H226 lung was > 100 µM throughout. The TGI in the test on SF-295 CNS, with M14 melanoma, with LOX IMVI melanoma, with MALME-3M melanoma and in the test on NCI/ADR-RES ovarian was > 100 µM in each case.

For `CC1=NN(c2nc(N)nc(CBr)n2)C(C)(C)C1`, the TGI with UACC-257 melanoma was found to be 25.2 µM; in the test with SK-MEL-28 melanoma, 27.2 µM; in the test on COLO 205 colon it was 9.61 µM; with A498 renal, 25.7 µM; in the test on KM12 colon it was 23.5 µM; in the test on SN12C renal it was 20.5 µM. Besides, the TGI with OVCAR-8 ovarian was 18.4 µM; with MOLT-4 leukemia it was 4.72 µM; in the test on PC-3 prostate, 18 µM; in the test on K-562 leukemia, > 100 µM; in the test on U251 CNS, 16.9 µM; with UACC-62 melanoma, 21.7 µM. Further, the TGI was 12.2 µM with NCI-H226 lung; 24.8 µM in the test on SF-295 CNS; 21.2 µM in the test with M14 melanoma; 1.89 µM in the test with LOX IMVI melanoma; 7.54 µM in the test on MALME-3M melanoma; 45.4 µM in the test on NCI/ADR-RES ovarian.

With `CC(C)C1OC(N)=C(C#N)C1(C#N)C#N` (centres undefined), the TGI is 96.4 µM in the test with UACC-257 melanoma; > 100 µM with COLO 205 colon; > 100 µM in the test with A498 renal; > 100 µM in the test with KM12 colon; > 100 µM in the test on SN12C renal; > 100 µM in the test on OVCAR-8 ovarian. Further, the TGI was 35.5 µM in the test with HL-60(TB) leukemia; > 100 µM in the test on PC-3 prostate; > 100 µM with K-562 leukemia; > 100 µM with U251 CNS; > 100 µM in the test on UACC-62 melanoma; > 100 µM in the test with NCI-H226 lung. The TGI in the test with SF-295 CNS, with M14 melanoma, with LOX IMVI melanoma, in the test with MALME-3M melanoma and with NCI/ADR-RES ovarian was > 100 µM throughout.

For the compound `COC(=O)/C(=N\NC(N)=O)C(C(=O)C(=O)Nc1ccccc1OC)c1nc2ccc([N+](=O)[O-])cc2[nH]c1=O` (centres undefined), the TGI with UACC-257 melanoma, in the test with SK-MEL-28 melanoma, in the test on A498 renal, with KM12 colon, in the test with SN12C renal and in the test on OVCAR-8 ovarian was > 100 µM each time. The TGI in the test on HL-60(TB) leukemia, in the test with PC-3 prostate, in the test on K-562 leukemia, in the test on U251 CNS, in the test on UACC-62 melanoma and in the test with NCI-H226 lung was > 100 µM throughout. In addition, the TGI with SF-295 CNS, in the test with M14 melanoma, in the test on LOX IMVI melanoma, in the test with MALME-3M melanoma and in the test on NCI/ADR-RES ovarian was > 100 µM in each case.
